We go through three molecules from patent publication US12686666B2, “Triazine compound salt, crystal form thereof, and production method therefor” (TANABE PHARMA CORPORATION, priority 2020, dated 2026).

Data set [1] addresses T1, human CYP11B2 (Homo sapiens, UniProt P19099).
T1 construct: expressed in transfected cells; the mitochondrial fraction was used
T1 sequence (P19099 25-503): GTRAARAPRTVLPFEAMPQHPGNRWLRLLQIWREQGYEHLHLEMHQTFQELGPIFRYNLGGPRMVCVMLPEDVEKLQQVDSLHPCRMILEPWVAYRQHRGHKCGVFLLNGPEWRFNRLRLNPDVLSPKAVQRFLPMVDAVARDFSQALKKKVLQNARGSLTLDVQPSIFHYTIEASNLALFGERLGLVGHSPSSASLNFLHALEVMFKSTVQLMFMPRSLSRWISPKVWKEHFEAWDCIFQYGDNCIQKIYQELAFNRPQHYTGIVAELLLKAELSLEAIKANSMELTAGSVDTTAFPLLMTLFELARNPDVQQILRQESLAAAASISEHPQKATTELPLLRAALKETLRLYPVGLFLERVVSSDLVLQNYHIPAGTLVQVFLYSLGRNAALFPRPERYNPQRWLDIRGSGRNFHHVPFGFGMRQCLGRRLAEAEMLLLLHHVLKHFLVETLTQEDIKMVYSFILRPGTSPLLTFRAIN
Kind of data set: Aldosterone synthase (CYP11B2) inhibitory activity measurement. To be noted: mitochondrial fraction of V79 cells expressing human CYP11B2; deoxycorticosterone substrate; HTRF; read-out: IC50 (aldosterone production inhibition). The class given is biochemical. How it is done: The pcDNA3.1-human CYP11B2 plasmid was transfected into a Chinese hamster lung fibroblast V79 cell line to produce a cell line stably expressing a human CYP11B2 gene.
The cells were cultured and grown in the Dulbecco's modified Eagle's/Ham's medium supplemented with 10% fetal bovine serum and 1% G418 disulfate solution under the environment of 37° C., 95% air, and 5% CO2, and the grown cells were harvested.
Then, the cells were fractionated to obtain mitochondria by reference to a method described in Chabre et al. JCE & M 85 (11) 4060-68, 2000. In particular, the cells suspended in a 5 mmol/L Tris-HCl buffer (pH 7.4) containing 250 mmol/L sucrose were homogenized in a Teflon (registered trademark) Potter Elvehjem homogenizer, and then the suspension was centrifuged (800×g, 15 min). […]
The mitochondrial fraction diluted with a buffer containing 10 mmol/L KH2PO4, 10 mmol/L Tris, 20 mmol/L KCl, 25 mmol/L sucrose, 5 mmol/L MgCl2, and 0.05% bovine serum albumin was dispensed to a 96 well plate. […] The amount of the produced aldosterone in the incubated solution was determined by using HTRF (Homogeneous Time Resolved Fluorescence) method.
IC50 (nmol/L) was calculated by analyzing the aldosterone production inhibition rate (%) of each concentration of the Triazine compound A of the present invention by non-linear regression to a logistic curve.

A short description of data set [2]: Pharmacokinetics in dogs treated with a promotor (pentagastrin) or an inhibitor (omeprazole) of gastric acid secretion. It is filed as in vivo, dogs (male beagle). The note with it: dog; for Cmax / AUC(0-inf) / AUC(0-t) / Tmax / half-life: male, beagle, plasma, po, 10 mg, fasted, mean; for Cmax: oral 10 mg/capsule (free form equivalent); for AUC(0-inf) / AUC(0-t) / Tmax / half-life: oral 10 mg/capsule. The procedure: The pharmacokinetics of hydrobromide of the Triazine compound A and the Triazine compound A under gastric acid secretion and gastric pH adjustment was evaluated by using dogs treated with a promotor of gastric acid secretion or an inhibitor of gastric acid secretion according to a crossover method of 2 groups with 4 phases.
Pentagastrin was used in the treatment of a promotor of gastric acid secretion. Pentagastrin (2.8 mg) was dissolved into dimethylsulfoxide (7.0 mL) and water for injection (7.0 mL) to prepare an administration solution, and administered into a muscle in the thigh at a dose of […]. Pentagastrin was administered 0.5 hour before and 0.5 hour after the administration of each test material (hydrobromide of the Triazine compound A (Compound 1 prepared in Example 1) or the Triazine compound A (Compound 10 prepared in Example 1)). Omeprazole was used in the treatment of an inhibitor of gastric acid secretion. Omeprazole (90 mg) was dissolved into a 1:1 mixed solution (22.5 mL) of a 0.1% aqueous solution of sodium hydrogen carbonate (w/v) and polyethyleneglycol 400 to prepare an administration solution, and administered into a saphenous vein of the hind limb at a dose of 1 mg/0.25 mL/kg. Omeprazole was administered 1 hour before the administration of each test material.
After 25 mL of water for injection was administered to each dog by using a syringe having an oral catheter, the hydrobromide of the Triazine compound A or the Triazine compound A was forcedly orally administered to each dog at a dose of 10 mg/capsule (in case of hydrobromide of the Triazine compound A, free form equivalent (i.e., 10 mg in terms of the Triazine compound A)), and additional 25 mL of water for injection was administered to each dog through the syringe having an oral catheter. Each test material was administered under fasting state, and each dog was fed 6 hours after the administration. Each dog was deprived of water from 1 hour before the administration of each test material to 2 hours after the administration.
Tests were carried out by using 6 heads of 4 year-old male beagle and dividing them into two groups, each of which comprises 3 heads. The dogs in Group 1 were subjected to the administration in the order of (Phase 1) omeprazole administration, then the Triazine compound A administration, (Phase 2) omeprazole administration, then the hydrobromide of the Triazine compound A administration, (Phase 3) pentagastrin administration, then the Triazine compound A administration, and (Phase 4) pentagastrin administration, then the hydrobromide of the Triazine compound A administration, and the dogs in Group 2 were subjected to the administration in the order of (Phase 1) omeprazole administration, then the hydrobromide of the Triazine compound A administration, (Phase 2) omeprazole administration, then the Triazine compound A administration, (Phase 3) pentagastrin administration, then the hydrobromide of the Triazine compound A administration, and (Phase 4) pentagastrin administration, then the Triazine compound A administration, and washout period between each phase was 6 or 7 days. After 15 minutes, 30 minutes, 1, 2, 4, 6, 8, and 24 hour(s) from the administration of the hydrobromide of the Triazine compound A or the Triazine compound A, 0.6 mL of whole blood sample was collected under awakening of each dog from a cephalic vein by using a heparin sodium injection. The whole blood sample was processed into a plasma, and the drug concentration of the Triazine compound A was analyzed by using liquid chromatography-tandem mass spectrometry (LC-MS/MS). […]

Data set [3] in a line: Hygroscopicity or deliquescency evaluation (moisture adsorption, DVS). It is filed as physicochemical. To be noted: for Hygroscopicity or deliquescency, conclusion in words: from Table 5. How it is done: Hygroscopicity or deliquescency was evaluated as follows by using a moisture adsorption measurement device DVS-1 or DVS-intrinsic (Surface Measurement Systems Limited). Each sample (about 5 mg) was placed into an aluminum plate of which the tare weight had been corrected in advance, and the plate was hung on the precision balance of said device to precisely measure the weight at the start of measurement. The humidity was changed in a stepwise manner in a chamber at 25° C., the weight change was recorded with time, and the equilibrium weight was calculated at each humidity. On the basis of the weight at a dried condition (0% RH), the weight change rate and hydration number at each humidity were calculated.
Hygroscopicity or deliquescency was evaluated as follows by using a moisture adsorption measurement device DVS-1 or DVS-intrinsic (Surface Measurement Systems Limited). Each sample was placed into a cell of which the tare weight had been corrected in advance, and the cell was hung on the precision balance of said device to precisely measure the weight at the start of measurement. The humidity was changed in a stepwise manner, the weight change was recorded with time, and the equilibrium weight was calculated at each humidity. On the basis of the weight of anhydride converted from the amount of water at a dried condition (0% RH) or at the start of measurement observed by an alternative method, the weight change rate at each humidity was calculated.

Data set [4] in a line: Chemical stability evaluation (storage 1 week, liquid chromatography peak area %). The class given is physicochemical. To be noted: for Chemical stability, conclusion in words: did not show a significant increase of related substances. How it is done: Each about 1 mg of a sample stored at 60° C. (sealed) or 60° C./75% RH (open) for 1 week and an unstored sample (at the start of test) was dissolved into a mixed solution of acetonitrile/water (1:1) (5 mL) to obtain each sample solution. A test was carried out by liquid chromatographic method under the following conditions to measure each peak area (%).
Each peak area (%) was measured by using Waters ACQUITY UPLC under the following conditions. • Detector: Photodiode array (measurement wavelength: 239 nm) • Column: Waters ACQUITY BEH C18 (2.1 mm×100 mm, 1.7 μm) • Column temperature: constant temperature about 40° C. • Mobile phase: Solution A; water/TFA (2000:1), Solution B; Acetonitrile/TFA (2000:1) • Concentration gradient control: B % 2→100% (15 minutes) • Flow rate: 0.5 mL/min • Injection volume: 2 μL
Each sample was stored at 60° C. under a sealed condition and at 60° C. under 75% RH for 1 week, and an increase or decrease of related substance(s) after the storage was calculated by high-performance liquid chromatographic method on the basis of the area percentage of each peak. Also, the condition of each sample after the storage was observed.

A short description of data set [5]: Thermal stability evaluation (TG/DTA weight change). The note with it: for Thermal stability, conclusion in words: did not show a significant weight change (Succinate Form A: at 25 to 148° C., melting point). It is filed as physicochemical. The procedure:
Thermal stability was measured and evaluated by using a thermogravimetry/differential thermal analyzer TG/DTA7200 (SII NanoTechnology Inc.) under the following conditions. • Rate of temperature increase: 10° C./min • Range of temperature increase: 25 to 300° C. • Atmosphere: nitrogen 200 mL/min <Hygroscopicity or Deliquescency Evaluation>
Thermal stability was measured and evaluated by using a thermogravimetry/differential thermal analyzer TG/DTA7200 (SII NanoTechnology Inc.) under the following conditions • Rate of temperature increase: 10° C./min • Range of temperature increase: 30 to 300° C. • Atmosphere: nitrogen 200 mL/min • or • using a TGA/DSC1 thermogravimetric analyzer (manufactured by Mettler Toledo, STARe system) under the following conditions. • Rate of temperature increase: 10° C./min • Range of temperature increase: 25 to 300° C. • Atmosphere: nitrogen 50 mL/min <Hygroscopicity or Deliquescency Evaluation>

[6] abbreviates: Omeprazole, reduced gastric acid secretion.
The mark [7] stands for this setting: Pentagastrin, increased gastric acid secretion.
The mark [8] stands for this setting: Table 5, 25° C., relative to weight at 0% RH.

Each structure is given as a SMILES string.

What is called IC50 is the concentration needed to halve the response being measured. The term Cmax denotes the peak of the concentration-time curve. For orientation: AUC(0-inf) means the area under the concentration-time curve extrapolated to infinity. A low value points to low exposure. As usually defined, the AUC(0-t) is the area under the concentration-time curve up to a stated or last time point. The low end stands for low exposure, the high end for high exposure. By Tmax is commonly meant the time from dosing to the highest level. As a reminder, the half-life is how long it takes for the measured level to halve.

`CC(=O)N[C@H]1CC[C@H](NC(=O)CN2CCN(c3nncc(-c4ccc(C)cc4)n3)CC2)CC1` [Triazine compound A, 3-[4-[[trans-4-(acetamino)cyclohexyl]carbamoylmethyl]piperazin-1-yl]-5-(p-tolyl)-1,2,4-triazine]: the IC50 in data set [1] was determined as 9 nM. For the same molecule, in data set [2] (oral 10 mg), the “Reduction of AUC under reduced gastric acid conditions as compared to increased gastric acid secretion conditions” value is given as “about 50%” and the “Reduction of Cmax under reduced gastric acid conditions as compared to increased gastric acid secretion conditions” value is listed as “about 50%”. Besides, in data set [2] (setting [6]), the Cmax was found to be 102 ng/mL, the AUC(0-inf) was 1000 ng·h/mL, the AUC(0-t) was 943 ng·h/mL and the Tmax worked out at 3.33 h. In data set [2] (setting [6]), this molecule showed a half-life of 5.6 h. In data set [2] (setting [7]), the Cmax was 222 ng/mL, the AUC(0-inf) was determined as 1910 ng·h/mL, the AUC(0-t) is 1690 ng·h/mL and the time of peak concentration (Tmax) was 1.42 h. In data set [2] (setting [7]), this molecule showed a half-life of 4.26 h.
Regarding `CC(=O)NC1CCC(NC(=O)CN2CCN(c3nncc(-c4ccc(C)cc4)n3)CC2)CC1.O=C(O)CCC(=O)O` (stereo not drawn) [Succinate Form A crystal], the “Hygroscopicity or Deliquescency Weight change at 90% RH” value in data set [3] (setting [8]) is on record as 0.4%. The “Hygroscopicity or deliquescency, conclusion in words” value in data set [3] was “excellent in the reduced hygroscopicity or deliquescency”. Moreover, in data set [4] (Table 5, change of related substances (peak area %) vs start), the “Chemical stability 60° C., 75% RH, 1 week (open)” value worked out at 0.02%. Moreover, the “Chemical stability 60° C. (sealed)” value in data set [4] (Table 5, stored 1 week at 60° C. sealed, change of related substances (peak area %) vs start) was 0.04%. In addition, the “Chemical stability, conclusion in words” value in data set [4] is recorded as “excellent chemical stability”. Moreover, the “Thermal stability TG: weight change” value is 0.0% in data set [5] (25-148° C.) and 23.7% in data set [5] (148-210° C.). For the same molecule, in data set [5], the “Thermal stability, conclusion in words” value is on record as “excellent thermal stability”.
`Br.CC(=O)N[C@H]1CC[C@H](NC(=O)CN2CCN(c3nncc(-c4ccc(C)cc4)n3)CC2)CC1` [Hydrobromide Form A crystal, 3-[4-[[trans-4-(acetamino)cyclohexyl]carbamoylmethyl]piperazin-1-yl]-5-(p-tolyl)-1,2,4-triazine hydrobromide]: the “Hygroscopicity or Deliquescency Weight change at 90% RH” value in data set [3] (setting [8]) was determined as 1.0%. Further, the “Hygroscopicity or Deliquescency Weight change at 90% RH” value in data set [3] (Table 10, *1 with hydration stage) was 1.0% ^. Besides, the “Hygroscopicity or deliquescency, conclusion in words” value in data set [3] is “excellent in the reduced hygroscopicity or deliquescency”. For the same molecule, the “Chemical stability, conclusion in words” value in data set [4] is “excellent chemical stability”. For the same molecule, the “Thermal stability TG: weight change” value in data set [5] (25-274° C.) stood at 0.9%. In addition, in data set [5] (Table 10, 25-274° C.), the “Thermal stability TG: weight change” value is reported as 0.98. Moreover, the “Thermal stability, conclusion in words” value in data set [5] is reported as “excellent thermal stability”. Also, the “Change of plasma concentration with the gastric acid conditions” value in data set [2] (oral 10 mg free form equivalent, pentagastrin vs omeprazole) is listed as “not changed”. In addition, in data set [2] (setting [6]), the peak concentration (Cmax) was found to be 256 ng/mL, the AUC(0-inf) was found to be 2030 ng·h/mL, the AUC(0-t) stood at 1990 ng·h/mL and the Tmax amounted to 1.83 h. In addition, the half-life in data set [2] (setting [6]) is 4.3 h. In data set [2] (setting [7]), the Cmax worked out at 263 ng/mL, the AUC(0-inf) worked out at 2020 ng·h/mL, the AUC(0-t) is 1990 ng·h/mL and the Tmax was determined as 1.67 h. Moreover, the half-life in data set [2] (setting [7]) was 4.24 h.
